Source: a melting point compilation (Tetko et al.; mined from patent text by program, amines drawn as free bases though some values may be those of a salt)

melting point	Structure (SMILES)
223 to 225 °C	N#Cc1ccc(C(=O)NCCCCn2cnc3c(N)nc4ccccc4c32)cc1
138 to 139 °C	C#Cc1ccc(C(=C2CC(C)(C)CC(C)(C)C2)c2ccc(O)cc2)cc1
82 to 84 °C	N#CC(=NOC(=O)OCC(Cl)(Cl)Cl)c1ccccc1
190 to 191 °C	CCOC(=O)N1C(=S)NC(C)=C(C(=O)OC)C1c1cccc(Cl)c1Cl (stereo not given)
208 to 209 °C	Cc1ccc(NC(=O)c2cccc(N3CCOCC3)c2)cc1NC(=O)c1cccc(N(C)S(C)(=O)=O)c1
224 °C	CNC(=O)C(=Cc1cccc(-c2ccc(C)c(C)c2)c1)NC(C)=O
114 to 125 °C	C(=C\c1c[nH]c2ccccc12)/c1cc(/C=C/c2ccccc2OCc2ccccn2)[nH]n1
79.7 °C	COc1ccc(S(=O)(=O)N(CCNC(C)=O)c2ccc(C)cc2Cc2c(F)cccc2F)cc1OC
135 to 137 °C	COC(Cn1ncc(-c2ccc(S(C)(=O)=O)cc2)c(-c2ccc(F)cc2)c1=O)c1ccccc1 (stereo not given)
176 to 179 °C	CC1(C)OC(=O)Nc2ccc(-c3ccccc3CC#N)cc21
143 °C	CN(C)CCOc1cccc(CC(Nc2cc(-c3ccc(OCc4ccccc4)cc3)ncn2)C(=O)O)c1 (stereo not given)
167 to 168 °C	CCOC(=O)N(C)C1CCc2c([nH]c3ccccc23)C1 (stereo not given)
92 to 94 °C	O=C1c2ccccc2S(=O)(=O)N1CCCCOc1ccccc1
176 to 177 °C	CC(C)(C)N1C(=O)c2cnc(-c3ccccc3)nc2N(C(=O)CCl)c2ccccc21
157 to 158 °C	O=C(c1ccccc1)N1CCC(C(Nc2ccc(F)cc2)c2ccc(F)cc2)CC1 (stereo not given)
108 to 110 °C	O=C1CC(C(F)(F)F)CC(=O)N1c1cc(OCSc2ccccc2)c(Cl)cc1F
139 to 141 °C	CS(=O)(=O)N(Cc1ccc(C(F)(F)F)cc1)CC(O)(Cn1cncn1)c1ccc(Cl)cc1Cl (stereo not given)
108 to 116 °C	CC(CCc1ccccc1)NCC(O)c1ccc(C(N)=O)s1 (stereo not given)
195 to 197 °C	COc1ccc(S(=O)(=O)N2CCc3cccc(-c4ccccn4)c32)cc1
127 °C	CCN(CC)CCSC1=C(C#N)C(c2ccccc2)(c2cccc(C(F)(F)F)c2)C(=O)N1 (stereo not given)

melting point	Structure (SMILES)
79 to 81 °C	CN(C(=O)OCc1ccccc1)c1ccc2c(c1)C(=O)C1(CC1)O2
209 to 211 °C	Oc1nn(-c2ccccc2)c2ccccc12
191 to 193 °C	Cc1c(C)n(CCc2ccccc2)c(C)c(C(=O)Nc2ccccc2)c1=O
182 °C	COc1ccc(C(=O)Nc2ccc3ccc(Oc4cccc(Cl)c4)nc3n2)cc1
59 °C	CC1(C)OC(=O)N[C@H]1Cc1ccccc1
68 to 70 °C	CCCCCCCCCCOc1cc(OCCCOc2ccc(OCc3ccccc3)cc2)cc(C(=O)OC)c1
80.9 °C	CCOC(=O)c1cncn1C1CC(C)(C)Oc2ccccc21 (stereo not given)
190 °C	CCOC(=S)C(C=P(c1ccccc1)(c1ccccc1)c1ccccc1)C(=O)C(F)(F)F (stereo not given)
45 to 47 °C	Cc1ccc(Oc2ccc(OC(=O)NC(C)CCCC(C)C)cc2)cc1 (stereo not given)
98 to 105 °C	COc1cc(N2CCCN(C)CC2)ccc1Nc1ncc2ccc(-c3ccccc3N(C)S(C)(=O)=O)n2n1
93 to 96 °C	Cc1onc(-c2ccc(Br)o2)c1-c1ccccc1
225 to 227 °C	Cc1c(-c2ccc(C[C@H](NC(=O)c3c(Cl)cccc3Cl)C(=O)O)cc2)c(=O)n(C)c(=O)n1C
132 to 133 °C	CCOC1CN(Cc2cc(OC)c(OC)c(OC)c2)Cc2cc(OC)c(OCc3ccccc3)cc21 (stereo not given)
101 to 105 °C	Cn1cc(-c2ccccc2)c(=O)c(-c2ccc3ccccc3c2)c1
286 to 288 °C	CCC(C)C(C)C(=O)Nc1ccc2ncn3c(=O)c(C(=O)O)cnc3c2c1 (stereo not given)
233 to 234 °C	CCOc1cccc(NC(=O)N2CCc3cc(SC)c(C(F)(F)F)cc32)c1
81 to 82 °C	COC(=O)C1=C(C)NC(C)=C(C(=O)OCOC(=O)C(C)(C)C)C1c1ccccc1 (single isomer, unassigned; (+))
121 to 124 °C	Cc1nc(C)c2c(n1)CN=C(c1ccccc1)c1cc(Cl)ccc1-2
153 to 156 °C	c1ccc(NC2=NC(Nc3ccccc3)(c3ccccc3)C(c3ccccc3)=N2)cc1 (stereo not given)
181 to 183 °C	CC(=O)C(=NNc1ccc([N+](=O)[O-])cc1)Sc1ccc(Cl)cc1

melting point	Structure (SMILES)
99 to 101 °C	O=C(NCc1ccccc1)c1ccnc(N2CCN(Cc3ccc(F)cc3)C2=O)c1
215 to 218 °C	CCCCN1Cc2c([nH]c3ccccc23)C1=O
293 °C	Cc1ccc(N2C(=O)C(O)=C(C(=O)c3ccc(C(C)C)cc3)C2c2ccc(-c3nnc(C)o3)cc2)nn1 (stereo not given)
102 to 106 °C	CC(=O)Nc1cc(N)ccc1OCCCN
174 to 178 °C	CC(C)(C)OC(=O)N1CCn2c(c(I)c(C#N)c2-c2ccccc2)C1
94 to 95 °C	O=C(c1ccc(Br)cc1)c1ncccc1O
> 293 °C	CC(=O)N1CCC(n2cc(C3=C(c4cn(C)c5ccccc45)C(=O)NC3=O)c3ccccc32)CC1
268 to 269 °C	CCCNC(=O)C(C)NC(=O)C(C)NC(=O)C(C)NC(=O)OCc1ccccc1 (stereo not given)
165 to 166 °C	COc1cc(COc2nn(-c3ccccc3)cc2/C=C/c2nnc(C)[nH]2)ccc1OCc1nc(-c2ccco2)oc1C
191 °C	CCc1ccc2c(c1)cc(C(=O)Nc1nc(-c3c(OC)cc(C)cc3OC)n(CCC3CCCCC3)n1)n2CC(=O)OC
269 to 270 °C	Cc1ccc(C(=O)C2=C(O)C(=O)N(c3ccc(C(C)C)nn3)C2c2ccc(C(C)C)cc2)cc1 (stereo not given)
269 to 272 °C	Cn1cc(-c2ncc(-c3ccc4cc(OCC(=O)O)ccc4c3)o2)c2ccccc21
196 to 197 °C	CCCOc1ccc(S(=O)(=O)N2CCCC(C(=O)OCC)C2)cc1-c1nc2cc(Cl)c([N+](=O)[O-])cc2c(=O)[nH]1 (stereo not given)
153 to 155 °C	C=CCOc1ccc2c(C)cc(=O)oc2c1C(=O)C=Cc1ccc(Cl)cc1
151 to 152 °C	CCCCCCCCCC(=O)Nc1ccc(S(=O)(=O)Nc2nncs2)cc1
73 to 75 °C	CCN(CCc1c[nH]c2ccccc12)C(=O)CCCC(=O)OC
108 to 129 °C	CC(NC(=O)C1C(O)N(Cc2ccccc2)C(=O)N1Cc1ccccc1)c1cccs1 (stereo not given)
176 °C	CN(C)c1cccc(C(=O)NC2CCN(C(c3ccccc3)c3ccccc3)CC2)c1[N+](=O)[O-]
212 °C	CC(c1ccc(C(=O)O)cc1)c1cc2cc(C(F)(F)F)ccc2n1S(=O)(=O)c1cccc(C(C)(C)C)c1 (racemic)

The next lines start with the molecule.

Structure (SMILES)	melting point
CC(C)NC(=S)NS(=O)(=O)c1ccc(S(C)(=O)=O)cc1N	151 to 153 °C
CN(C)C(=O)Sc1ccc(CC#N)cc1	97 to 99 °C
Cc1nc(CN(C(=O)CCl)c2c(C)cccc2C)cs1	62 to 64 °C
CN(Sc1nc2ccccc2s1)C(C)(C)C	56 to 58 °C
CC(C)(C)C(O)c1ccc(CO)cc1 (stereo not given)	91 to 95 °C
CS(=O)c1cc(Br)nc(Br)c1 (stereo not given)	98 to 100 °C
COC[C@@H]1CCCN1S(=O)(=O)c1ccc2c(c1)C(=O)C1=NCC(C)(C)CN12	161 to 164 °C
CSc1cc2c([nH]1)CC(C)(C)CC2=O	195 to 196 °C
O=S(=O)(c1ccc(Cl)c2ccccc12)N1CC2CCC(CC2)C1	134 to 137 °C
CC(O)Cc1cc([N+](=O)[O-])cc(N)c1N (stereo not given)	174 °C
CCOC(=O)C1(NC(C)=O)CC(C)(C)NC(C)(C)C1	108 to 109 °C
CCOC(=O)Cc1nsc2ccc(-n3c(=O)cc(C(F)(F)F)n(C)c3=O)cc12	150 to 152 °C
Cc1cc(NC(=O)c2cnccn2)nc(C)c1[N+](=O)[O-]	158 °C
NC(=O)N(O)Cc1ccc(CCCCCC(F)(F)F)s1	94 °C
c1cc2cc(-c3nnn[nH]3)ccc2[nH]1	205 °C
COc1ccc(CCNC(=O)C(F)(F)F)cc1NS(C)(=O)=O	129 to 130 °C
OCCN1CCC(=C2c3ccccc3CCn3ncnc32)CC1	154 °C
CSc1ccc(/C=C/C2=CC(=O)C(C)(C)O2)cc1	98 to 99.5 °C
CC(=O)OCC1OC(Oc2nc[nH]c2C(N)=O)C(OC(C)=O)C(OC(C)=O)C1OC(C)=O (stereo not given)	234 to 235 °C
Cc1[nH]c(=O)[nH]c1C(=O)C=Cc1ccccc1	299 °C
COc1ccc(C=O)c(Br)c1O	80 to 81.5 °C

Structure (SMILES)	melting point
CC12CCCCC1CCC1C2CCC2(C)C(C(O)c3ccccc3)CCC12 (stereo not given)	129 to 130 °C
N#CCSc1c[nH]c2ccccc12	52 to 54.5 °C
Cc1onc(-c2cccc(Cl)c2)c1CO	66 to 68 °C
CC(C)CCC1C(=O)NS(=O)(=O)N1C (stereo not given)	212 to 214 °C
CN1C(=O)C(C(=O)NCC2CCC(C(=O)O)CC2)S(=O)(=O)c2ccccc21 (stereo not given)	203 to 204 °C
Nc1cc(C(=O)NC2CCC2)n[nH]1	147 °C
Cc1cccc2c(Cl)cc(C(F)(F)Cl)nc12	46 to 48 °C
CCCc1ccc(C(=O)O)c(F)c1F	69 °C
CC1(C)[C@@H](C(=O)Nc2ccncc2)[C@@H]1c1ccc(S(N)(=O)=O)cc1 (relative stereo)	270 to 274 °C
CCC(C)Nc1c(C(F)(F)F)cc([N+](=O)[O-])c(Cl)c1[N+](=O)[O-] (stereo not given)	90.5 to 91.5 °C
Cc1ccc2c(N)c(Cl)ccc2n1	196 to 197 °C
Nc1nc(NC2Cc3ccccc3N(Cc3ccc(F)cc3F)C2)c2cn[nH]c2n1 (stereo not given)	110 to 114 °C
CC(C)N(C[C@H](O)CO)S(C)(=O)=O	67 to 70 °C
CCOc1nc(N)nc(N2CCc3ccccc3CC2)c1C#N	195 to 203 °C
COC(=O)C1CC2CCC1N(C(=O)OC(C)(C)C)C2 (stereo not given)	44 to 45 °C
Cc1cc(NC(=O)C(C)(O)COc2ccc(CCF)cc2)ccc1[N+](=O)[O-] (stereo not given)	102 to 105 °C
O=[N+]([O-])c1ccc(N2CCSCC2)cc1	142 to 144 °C
Nc1cc(Cl)nc(C(=O)O)c1C(F)F	149 to 151 °C
OC1CSC(Oc2cc(-c3ccc(F)nc3)cc(F)c2F)C(O)C1O (stereo not given)	179 °C
Cc1cc(=O)c2[nH]nc(C)c2[nH]1	> 346 °C
